Test results as given in patent US20260234147A1 (priority 2023, published 2026).
Read-outs that look alike come from different tables or passages of the source.

Experiments:
hMOR [1] = molecular target: T1, hMOR (Homo sapiens, UniProt P35372); assay: Cyclic adenosine 3′,5′-monophosphate (cAMP) assay in hMOR-CHO cells; assay type: cell-based; conditions: N=1, control agonist DAMGO
hDOR = hDOR (Homo sapiens, UniProt P41143); assay: Radioligand binding assay (Eurofins Cerep), [3H]DADLE displacement
Chain of hDOR (P41143 whole entry): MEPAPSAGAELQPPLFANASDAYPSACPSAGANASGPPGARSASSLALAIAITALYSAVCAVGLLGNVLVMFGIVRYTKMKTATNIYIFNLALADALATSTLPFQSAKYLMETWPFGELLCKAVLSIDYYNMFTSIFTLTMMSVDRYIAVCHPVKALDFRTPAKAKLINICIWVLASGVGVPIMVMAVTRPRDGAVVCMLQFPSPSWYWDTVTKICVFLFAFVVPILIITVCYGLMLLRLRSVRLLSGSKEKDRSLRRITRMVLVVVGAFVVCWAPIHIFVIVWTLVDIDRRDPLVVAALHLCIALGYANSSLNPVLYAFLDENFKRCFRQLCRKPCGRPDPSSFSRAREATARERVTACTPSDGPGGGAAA

[2] = Metabolic stability in rat liver microsomes; assay type: in vitro ADME; conditions: for RLM stability: rat liver microsomes 1 mg/ml, substrate 1 μM, NADPH, 37° C.; for Whole liver clearance, CL int, H: in vitro intrinsic clearance in RLM scaled to whole organ (rat)
Description: In vitro metabolic stability of each compound was determined using rat liver microsomes in triplicate. Verapamil was used as a positive control to check the activity of the microsomes. The incubation mixtures consisted of rat liver microsomes (1 mg microsomal protein/ml), substrate (1 μM), and reduced NADPH (1 mM) in a total volume of 0.4 ml potassium phosphate buffer (50 mM, pH 7.4). Reactions were initiated with the addition of NADPH and kept in an incubator shaker at 37° C. Aliquots of 25 μl were withdrawn at 0, 5, 10, 15, 30, and 60 min and mixed with 125 μl of acetonitrile with formic acid (0.1% v/v) containing phenacetin (50 ng/ml; internal standard) for the termination of the reaction. The samples were then vortex mixed and filtered through a […] 96-well membrane filtration plate under centrifugation at speed of 2000×g for 5 min at 4° C. The filtrates were subjected to UPLC-mass spectrometry (MS/MS) analysis.
The intrinsic clearance of the compounds was calculated using a half-life employing the ‘substrate depletion’ approach. The apparent half-life was calculated from the pseudo-first-order rate constants obtained by linear regression of log (concentration) and time plots. The in vitro intrinsic clearance of IFN was estimated using the formula: […]
Where k is the slope of the line obtained by plotting the natural logarithmic of the percentage of parent remaining versus time and V is the volume of incubation.
The in vitro intrinsic clearance was scaled to whole-organ (hepatic) in vivo intrinsic CL (CLint,H) using the scaling factors available in the literature using equation (Mahmood I. Application of allometric principles for the prediction of pharmacokinetics in human and veterinary drug development. Advanced drug delivery reviews, 2007, 59(11), 1177-1192)
MPPGL represents the microsomal protein per gram of Sprague Dawley rat liver (45 mg/g) and liver weight per kg body weight was 40 g/kg.

hKOR = hKOR (Homo sapiens, UniProt P41145); assay: Radioligand binding assay (Eurofins Cerep), [3H]U69,593 displacement
Chain of hKOR (P41145 whole entry): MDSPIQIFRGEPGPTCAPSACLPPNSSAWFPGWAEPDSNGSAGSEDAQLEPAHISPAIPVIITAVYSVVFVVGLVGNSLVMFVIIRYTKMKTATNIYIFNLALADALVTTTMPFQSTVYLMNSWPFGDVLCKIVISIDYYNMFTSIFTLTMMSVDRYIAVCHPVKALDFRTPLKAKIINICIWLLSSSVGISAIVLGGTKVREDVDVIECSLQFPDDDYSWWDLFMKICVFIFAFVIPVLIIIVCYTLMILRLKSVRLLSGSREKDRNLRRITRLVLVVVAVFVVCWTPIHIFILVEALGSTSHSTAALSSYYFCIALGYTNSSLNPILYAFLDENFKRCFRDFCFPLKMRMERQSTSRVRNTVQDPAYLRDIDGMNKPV

α2A adrenergic receptor = molecular target: T2, α2A adrenergic receptor (Homo sapiens, UniProt P08913); assay: Radioligand binding assay (Eurofins Cerep), [3H]RX 821002 displacement
T2 construct: Eurofins Cerep (contract screening)
T2 sequence (P08913 1-465): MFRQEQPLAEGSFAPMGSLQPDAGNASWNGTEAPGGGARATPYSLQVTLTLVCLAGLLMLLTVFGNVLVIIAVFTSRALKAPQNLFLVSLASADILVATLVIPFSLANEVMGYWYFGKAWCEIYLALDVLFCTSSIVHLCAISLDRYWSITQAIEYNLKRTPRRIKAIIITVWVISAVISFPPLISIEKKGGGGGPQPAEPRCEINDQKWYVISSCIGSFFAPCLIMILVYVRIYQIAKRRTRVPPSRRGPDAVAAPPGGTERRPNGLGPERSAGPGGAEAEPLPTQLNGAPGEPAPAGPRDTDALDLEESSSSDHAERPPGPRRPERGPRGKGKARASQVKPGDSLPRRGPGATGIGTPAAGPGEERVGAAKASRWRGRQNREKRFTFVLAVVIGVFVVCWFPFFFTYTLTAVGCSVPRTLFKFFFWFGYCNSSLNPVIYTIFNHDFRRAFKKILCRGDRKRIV

hMOR [3] = molecular target: T1, hMOR; assay: Radioligand binding assay (Eurofins Cerep), [3H]DAMGO displacement
hMOR [4] = molecular target: T1, hMOR; assay: cell-based; parameters: expressed in transfected cells; conditions: for Emax: CHO
α2C adrenergic receptor = molecular target: T3, α2C adrenergic receptor (Homo sapiens, UniProt P18825); assay: Radioligand binding assay (Eurofins Cerep), [3H]RX 821002 displacement
T3 construct: Eurofins Cerep (contract screening)
T3 sequence (P18825 1-462): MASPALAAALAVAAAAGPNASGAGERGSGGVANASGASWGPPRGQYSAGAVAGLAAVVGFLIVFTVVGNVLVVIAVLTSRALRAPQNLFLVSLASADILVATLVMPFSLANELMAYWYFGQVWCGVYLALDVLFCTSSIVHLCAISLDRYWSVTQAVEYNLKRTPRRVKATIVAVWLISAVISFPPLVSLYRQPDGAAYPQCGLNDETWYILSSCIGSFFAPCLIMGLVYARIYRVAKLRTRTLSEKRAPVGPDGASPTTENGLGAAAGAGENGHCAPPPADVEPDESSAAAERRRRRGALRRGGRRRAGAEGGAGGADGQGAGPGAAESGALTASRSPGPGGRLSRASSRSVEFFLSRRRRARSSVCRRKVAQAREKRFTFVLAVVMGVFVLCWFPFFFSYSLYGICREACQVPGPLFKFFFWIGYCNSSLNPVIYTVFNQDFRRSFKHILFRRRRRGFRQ

[5] = DOR Ki ± SEM (nM), Table A1, data summary #1
[6] = DOR Ki ± SEM (nM), Table A4, data summary #2
[7] = Table A1, data summary #1, read-out: KOR Ki ± SEM
[8] = Table A4, data summary #2, read-out: KOR Ki ± SEM
[9] = Alpha2A Ki ± SEM (nM), Table A4, data summary #2
[10] = Table A4, data summary #2, read-out: MOR Ki ± SEM
[11] = Alpha2A Ki ± SEM (nM), Table A1, data summary #1
[12] = Table A1, data summary #1, read-out: MOR Ki ± SEM
[13] = read-out: MOR Emax ± SEM (% DAMGO), Table A1, data summary #1
[14] = Table A4, data summary #2, read-out: DOR Ki ± SEM
[15] = Table A4, data summary #2, read-out: Alpha2A Ki ± SEM
[16] = Table A1, data summary #1, read-out: DOR Ki ± SEM

T1 sequence (P35372 whole entry): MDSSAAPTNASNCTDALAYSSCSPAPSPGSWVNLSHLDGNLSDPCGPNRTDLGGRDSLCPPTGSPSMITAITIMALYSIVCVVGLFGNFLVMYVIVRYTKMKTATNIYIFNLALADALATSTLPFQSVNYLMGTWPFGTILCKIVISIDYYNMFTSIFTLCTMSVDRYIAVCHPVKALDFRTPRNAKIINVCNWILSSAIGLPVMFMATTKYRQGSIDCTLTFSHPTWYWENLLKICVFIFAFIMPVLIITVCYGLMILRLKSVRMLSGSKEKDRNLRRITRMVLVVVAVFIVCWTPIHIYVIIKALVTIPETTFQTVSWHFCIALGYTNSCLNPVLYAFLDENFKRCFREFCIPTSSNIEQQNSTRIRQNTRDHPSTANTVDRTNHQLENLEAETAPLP

Compound | functional activity in cAMP assay (hMOR [1]) | Ki (hDOR; [5]) [nM] | Ki (hDOR; [6]) [nM] | RLM stability [2] [min] | Ki (hKOR; [7]) [nM] | Ki (hKOR; [8]) [nM] | Ki (α2A adrenergic receptor; [9]) [nM] | Ki (hMOR [3]; [10]) [µM] | Ki (hMOR [3]; read-out: Ki at hMOR) [µM] | Ki (α2A adrenergic receptor; [11]) [nM] | Ki (hMOR [3]; [12]) [µM] | Whole liver clearance, CL int, H [2] [L/h/kg] | Emax (hMOR [4]; [13]) [%] | Ki (hDOR; [14]) [nM] | Ki (α2A adrenergic receptor; [15]) [nM] | Ki (hDOR; [16]) [nM] | also measured
CC[C@@H]1CN2CCc3c([nH]c4cccc(OC)c34)[C@@H]2C[C@@H]1/C(=C\OC)C(=O)N(C)C1CCCCC1 [SUSM-523, (E)-N-cyclohexyl-2-((2S,3S,12bS)-3-ethyl-8-methoxy-1,2,3,4,6,7,12,12b-octahydroindolo[2,3-a]quinolizin-2-yl)-3-methoxy-N-methylacrylamide] | antagonists | 6490 ± 962 | 8290 ± 1020 | <5 | 2640 ± 685 | 1950 ± 611 | 187 ± 29 | 0.049 ± 0.014 | 0.0819 | – | – | – | – | – | – | – | functional activity in cAMP assay (hMOR [1]; listed as SUSM 523): antagonist
CC[C@@H]1CN2CCc3c([nH]c4cccc(OC)c34)[C@@H]2C[C@@H]1/C(=C\OC)C(=O)Nc1ccccc1 [SUSM-528, (E)-2-((2S,3S,12bS)-3-ethyl-8-methoxy-1,2,3,4,6,7,12,12b-octahydroindolo[2,3-a]quinolizin-2-yl)-3-methoxy-N-phenylacrylamide] | agonist, however its potency was less than DAMGO | – | > 10000 | – | > 10000 | 6510 ± 4660 | 6580 ± 2320 | 0.498 ± 0.118 | – | 6580 ± 2320 | 7.77 ± 3.62 | – | – | – | – | – | functional activity in cAMP assay (hMOR [1]; listed as SUSM 528): agonist, but less potent than DAMGO
CC[C@@H]1CN2CCc3c([nH]c4cccc(OC)c34)[C@@H]2C[C@@H]1/C(=C\OC)C(=O)N(C)C [SUSM-501, (E)-2-((2S,3S,12bS)-3-ethyl-8-methoxy-1,2,3,4,6,7,12,12b-octahydroindolo[2,3-a]quinolizin-2-yl)-3-methoxy-N,N-dimethylacrylamide] | partial agonist activity | 6490 ± 3030 | 6490 ± 3030 | 6 | 3070 ± 569 | 3070 ± 569 | 1810 ± 319 | 0.429 ± 0.0757 | – | 1810 ± 319 | 0.429 ± 0.0757 | 7.728 | -4.05 ± 4.03 | – | – | – | functional activity in cAMP assay (hMOR [1]; listed as SUSM 501): partial agonist; functional character at MOR (hMOR [4]): partial antagonist; Emax (hMOR [4]; read-out: Emax, functional activity at MOR): -4.05%; Ki (α2C adrenergic receptor; Table A1, data summary #1, read-out: Alpha2C Ki ± SEM): 420 ± 113 nM
CC[C@@H]1CN2CC[C@@]3(O)C(=Nc4cccc(OC)c43)[C@@H]2C[C@@H]1/C(=C\OC)C(=O)N(C)C [SUSM-524, (E)-2-((2S,3S,7aS,12bS)-3-ethyl-7a-hydroxy-8-methoxy-1,2,3,4,6,7,7a,12b-octahydroindolo[2,3-a]quinolizin-2-yl)-3-methoxy-N,N-dimethylacrylamide] | agonist activity | – | – | <5 | 9150 ± 1100 | 9150 ± 1100 | – | 0.09 ± 0.014 | 0.11 | – | – | – | – | 802 ± 212 | > 10000 | – | functional activity in cAMP assay (hMOR [1]; listed as SUSM 524): agonist; potency at MOR relative to SUSM-501 (hMOR [3]): 4 fold
CC[C@@H]1CN2CCc3c([nH]c4cccc(OC)c34)[C@@H]2C[C@@H]1/C(=C\OC)C(=O)OC [Mitragynine, mitragynine, reference compound] | – | – | – | – | 1530 | 264 | – | – | – | – | – | 2.13 | 3.97 | 1950 | 1350 | 6800 | Ki (hDOR; Table 3-1, 3 independent experiments, read-out: Ki (nM ± SEM) DOR): 6800 ± 721 nM; Ki (hDOR; Table B1′, read-out: DOR Ki ± SEM): 6800 ± 721 nM; Emax (hMOR [4]; read-out: MOR Emax ± SEM (%)): 3.97 ± 9.5%; Ki (hKOR; Table 3-1, 3 independent experiments, read-out: Ki (nM ± SEM) KOR): 1530 ± 485 nM; Ki (hKOR; Table B1′, read-out: KOR Ki ± SEM): 1530 ± 143 nM; Ki (α2A adrenergic receptor; Table 3-1, 3 independent experiments, read-out: Ki (nM ± SEM) a2A-AR): 4090 ± 273 nM; Ki (α2A adrenergic receptor; Table A1, data summary #1, read-out: Alpha2A Ki ± SEM): 4090 nM; Ki (α2A adrenergic receptor; Table B1, mean ± SEM, 3 independent experiments, read-out: Alpha2A Ki ± SEM): 709 ± 91.2 nM; Ki (α2A adrenergic receptor; Table B1′, read-out: alpha2A Ki ± SEM): 4090 ± 273 nM; Ki (α2A adrenergic receptor; Table B2, mean ± SEM, 3 independent experiments, read-out: Alpha2A Ki ± SEM): 709 ± 91.2 nM; Ki (α2C adrenergic receptor; Alpha2C Ki ± SEM (nM), Table A1, data summary #1): 4040 nM; Ki (α2C adrenergic receptor; Alpha2C Ki ± SEM (nM), Table B2, mean ± SEM, 3 independent experiments): 4090 ± 372 nM; Ki (α2C adrenergic receptor; Ki (nM ± SEM) a2C-AR, Table 3-1, 3 independent experiments): 4040 ± 417 nM
CC[C@@H]1CN2CCc3c([nH]c4cccc(OC)c34)[C@@H]2C[C@@H]1/C(=C\OC)C(=O)N(C)C1CCCC1 | antagonists | – | – | <5 | 4600 ± 132 | 4600 ± 132 | – | 0.068 ± 0.007 | 0.0678 | – | – | – | – | 6930 ± 1340 | 510 ± 82 | 9750 ± 452 | functional activity in cAMP assay (hMOR [1]; listed as SUSM 522): antagonist
